In ChEMBL document CHEMBL1140592, “Identification of novel, selective and potent Chk2 inhibitors” (Bioorg Med Chem Lett, 2007):

target: Serine/threonine-protein kinase Chk2 (Homo sapiens, UniProt O96017); test: Inhibition of Chk2 kinase
Sequence (O96017 whole entry): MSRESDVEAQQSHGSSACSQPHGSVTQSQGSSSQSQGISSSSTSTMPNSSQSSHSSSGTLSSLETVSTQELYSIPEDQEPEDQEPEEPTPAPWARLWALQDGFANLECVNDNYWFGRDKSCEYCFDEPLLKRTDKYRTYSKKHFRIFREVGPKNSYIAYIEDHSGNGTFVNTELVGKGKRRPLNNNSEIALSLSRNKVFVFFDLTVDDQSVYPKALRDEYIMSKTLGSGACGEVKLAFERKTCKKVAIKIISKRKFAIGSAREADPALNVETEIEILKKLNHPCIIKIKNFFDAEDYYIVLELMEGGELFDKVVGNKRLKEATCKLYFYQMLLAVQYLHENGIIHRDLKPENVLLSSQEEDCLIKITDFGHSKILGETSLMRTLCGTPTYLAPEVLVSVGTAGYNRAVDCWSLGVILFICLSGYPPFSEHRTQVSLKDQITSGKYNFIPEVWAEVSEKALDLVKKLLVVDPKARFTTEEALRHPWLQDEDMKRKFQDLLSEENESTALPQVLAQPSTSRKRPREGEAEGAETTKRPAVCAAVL

| SMILES | IC50 [nM] |
| --- | --- |
| N=C(NCc1cccc2ccccc12)c1c(O)nsc1Nc1ccc(Nc2ccc(Br)cc2)cc1 | 460 |
| CC(C)NC(=N)c1c(O)nsc1Nc1ccc(Cc2ccccc2)cc1 | 8000 |
| N=C(NCC1CCCCC1)c1c(O)nsc1Nc1ccc(C(=O)c2ccccc2)cc1 | 5000 |
| CC(C)NC(=N)c1c(O)nsc1Nc1ccc(C2CCCCC2)cc1 | 19000 |
| CC(C)NC(=N)c1c(O)nsc1Nc1ccc(Nc2ccc(Br)cc2)cc1 | 87 |
| CC(CO)NC(=N)c1c(O)nsc1Nc1ccc(Nc2ccc(Br)cc2)cc1 (stereo not given) | 140 |
| NC(=NCC1CCCCC1)c1c(Nc2ccc(-n3cccn3)cc2)s[nH]c1=O | 40000 |
| N=C(NCC1CCCCC1)c1c(O)nsc1Nc1ccc(Sc2ccccc2)cc1 | 19000 |
| CC(C)NC(=N)c1c(O)nsc1Nc1ccc(Nc2ccccc2)cc1 | 420 |
| N=C(NCCO)c1c(O)nsc1Nc1ccc(Nc2ccccc2)cc1 | 1000 |
| N=C(NCCO)c1c(O)nsc1Nc1ccc(Nc2ccc(Br)cc2)cc1 | 220 |
| CC(C)NC(=N)c1c(O)nsc1Nc1ccc(/N=N/c2ccccc2)cc1 | 11000 |
| CC(C)NC(=N)c1c(O)nsc1Nc1ccc(S(=O)(=O)c2ccccc2)cc1 | > 40000 |
| N=C(NCC1CCCCC1)c1c(O)nsc1Nc1ccc(/N=N/c2ccccc2)cc1 | 11000 |
| N=C(NCC(O)CO)c1c(O)nsc1Nc1ccc(Nc2ccc(Br)cc2)cc1 (stereo not given) | 470 |
| N=C(NCC(O)CO)c1c(O)nsc1Nc1ccc(Nc2ccccc2)cc1 (stereo not given) | 900 |
| CCC[C@H]1CC[C@H](c2ccc(Nc3s[nH]c(=O)c3C(N)=NCC(O)CO)cc2)CC1 (stereo not given in full) | 17000 |

Continued, values first:

| IC50 [nM] | SMILES |
| --- | --- |
| 310 | N=C(NCCCCO)c1c(O)nsc1Nc1ccc(Nc2ccc(Br)cc2)cc1 |
| > 40000 | CC(CO)NC(=N)c1c(O)nsc1Nc1ccc(-n2cccn2)cc1 (stereo not given) |
| 37000 | N=C(NCC1CCCCC1)c1c(O)nsc1Nc1ccc(Cc2ccccc2)cc1 |
| 460 | CC(CO)NC(=N)c1c(O)nsc1Nc1ccc(Nc2ccccc2)cc1 (stereo not given) |
| 1800 | N=C(NCC1CCCCC1)c1c(O)nsc1Nc1ccc(Nc2ccccc2)cc1 |
| 1200 | N=C(NCCCCO)c1c(O)nsc1Nc1ccc(Nc2ccccc2)cc1 |
| 2300 | CC(C)NC(=N)c1c(O)nsc1Nc1ccc(Oc2ccccc2)cc1 |
| 300 | N=C(NCC1CCCCC1)c1c(O)nsc1Nc1ccc(Nc2ccc(Br)cc2)cc1 |
